Data reported in patent US9090629B2, “Cytotoxic agents comprising new ansamitocin derivatives” (ImmunoGen, Inc., priority 2010, dated 2015).
Read-outs that look alike come from different tables or passages of the source.

Legend:
COLO 205-MDR cell line = test: in-vitro activity of ansamitocin derivatives; type: cell-based, human; conditions: 96 hour exposure; read-out: IC50 against COLO 205-MDR cell line
Procedure: (§1) All reagents were purchased from the Aldrich Chemical Co., New Jersey, or other commercial sources. Maytansinol (11) was prepared as described previously (U.S. Pat. No. 6,333,410). Nuclear Magnetic Resonance (^1H NMR) spectra were acquired on a Bruker 400 MHz instrument and mass spectra were acquired on a Bruker Daltonics Esquire 3000 instrument using electrospray ionization. In vitro cytotoxicity assays are performed as previously described (see U.S. Pat. No. 7,276,497 and W. C. Widdison et al., J. Med. Chem., 2006, 49, 4392-4408).

COLO 205 cell line = test: in-vitro activity of ansamitocin derivatives; type: cell-based, human; conditions: 96 hour exposure; read-out: IC50 against COLO 205 cell line
Procedure: as §1
(§2) The KB (ATCC CCl-17) cell line is of human epithelial origin. The SK-BR-3 (ATCC HTB-30) cell line was established from a human breast adenocarcinoma. The human colon tumor cell lines COLO 205 (ATCC CCL-222) and HT-29 (ATCC HTB 38), the human melanoma cell line A-375 (ATCC CRL 1619), the human Burkitts lymphoma cell line Ramos (ATCC CRL-1596) and the human myeloid leukemia cell line HL-60 (ATCC CCL-240) were all obtained from ATCC, Maryland. Cell lines were grown in Dulbecco's modified Eagles Medium (DMEM, Biowhittaker, Walkersville, Md.) with L-glutamine supplemented with 10% fetal bovine serum (Hyclone, Logan, Utah) and 50 μg/mL gentamycin sulfate (Life Technologies, Rockville, Md.). Cells were maintained at 36-37.5° C. in a humidified atmosphere that contained 6% CO2.

KB cell line = test: in-vitro activity of ansamitocin derivatives; type: cell-based, human
Description: The in vitro cytotoxicity of ansamitocin derivatives of the present invention can be measured by methods previously disclosed (U.S. Pat. No. 7,276,497 and Widdison et al., J. Med. Chem., 49; 4392, 2006, both expressly incorporated herein by reference). For example, cell lines such as the human breast carcinoma line SK-Br-3, or the human epidermoid carcinoma cell line KB, can be used for the assessment of cytotoxicity of these new ansamitocin derivatives. Cells to be evaluated are exposed to the compounds for 72 hours and the surviving fractions of cells measured in direct assays by known methods. IC50 values are calculated from the results of the assays.
as §1
The KB (ATCC CCl-17) cell line is of human epithelial origin. The SK-BR-3 (ATCC HTB-30) cell line was established from a human breast adenocarcinoma. […]

SK-Br-3 cells = test: clonogenic in vitro cytotoxicity assay; type: cell-based, human; conditions: for IC50: read-out: IC50 towards SK-Br-3 cells
Procedure: as §2
(§3) The cytotoxicity study was performed using a clonogenic assay. The test cell lines (KB and SK-Br-3) were plated into 6-well culture dishes at a constant number of 1000 cells per well. Cells were incubated with varying concentrations (0 to 3 nM) of the various ansamitocins or maytansine for 72 hours. The medium was then aspirated from the plates and replaced with fresh medium. Cultures were allowed to grow, and form colonies, for a total of 7-10 days after plating. The cultures were then fixed and stained with 0.2% crystal violet in 10% formalin/PBS and colonies were counted. Plating efficiency of non-treated cells (medium alone) was determined by dividing the number of colonies counted by the number of cells plated. Surviving fraction of cells exposed to the drugs was determined by dividing the number of colonies in wells that were exposed to the drug by the number of colonies in the control wells.

KB cells [1] = test: clonogenic in vitro cytotoxicity assay; type: cell-based, human; conditions: 72 hours incubation
Procedure: as §2, §3

KB cells [2] = conditions: literature report, cited from earlier work
[3] = system: human nasopharyngeal carcinoma cells; conditions: literature report; cited from earlier work
[4] = system: L1210 mouse leukemia system; conditions: literature report; cited from earlier work
L1210 cells = L1210 cells treated in vivo; untreated control 3.2 to 5.8%; cited from earlier work
[5] = system: human acute lymphoblastic leukemia line CEM; conditions: literature report; cited from earlier work

For `COc1cc2cc(c1Cl)N(C)C(=O)C[C@H](OC(=O)CCCCC(=O)OCC[Si](C)(C)C)[C@]1(C)O[C@H]1[C@H](C)[C@@H]1C[C@@](O)(NC(=O)O1)[C@H](OC)/C=C/C=C(\C)C2` [14a], the IC50 (COLO 205-MDR cell line) was 4800 pM and the IC50 (COLO 205 cell line) was 400 pM.
For `COc1cc2cc(c1Cl)N(C)C(=O)CC(OC(=O)CCCCC(=O)O)C1(C)OC1C(C)C1CC(O)(NC(=O)O1)C(OC)C=CC=C(C)C2` (stereo not drawn) [14b, Hexanedioic Acid Ester of Maytansinol], the “fold reduction in activity compared to the TMS-protected precursor 14a” value (KB cell line; KB cell line) was 15 fold.
With `CCCCC(=O)O[C@H]1CC(=O)N(C)c2cc(cc(OC)c2Cl)C/C(C)=C/C=C/[C@@H](OC)[C@@]2(O)C[C@H](OC(=O)N2)[C@@H](C)[C@@H]2O[C@@]12C` [ansamitocin P4′] the “fold more potent than maytansine towards SK-Br-3 cells” value (SK-Br-3 cells; 72 hours incubation) was 17 fold and the IC50 (SK-Br-3 cells; 72 hours incubation) was 2 pM.
For `CCC(=O)O[C@H]1CC(=O)N(C)c2cc(cc(OC)c2Cl)C/C(C)=C/C=C/[C@@H](OC)[C@@]2(O)C[C@H](OC(=O)N2)[C@@H](C)[C@@H]2O[C@@]12C` [ansamitocin bearing a C3 propionyl ester], the “fold more potent than maytansine towards KB cells” value (KB cells [1]) is given as 1.3 fold and the “fold less potent than maytansine (Kupchan et al.)” value (KB cells [2]; KB cells) is given as “about 34.4 fold”.
In the case of `COc1cc2cc(c1Cl)N(C)C(=O)C[C@H](OC(=O)CCCCCSSC)[C@]1(C)O[C@H]1[C@H](C)[C@@H]1C[C@@](O)(NC(=O)O1)[C@H](OC)/C=C/C=C(\C)C2` [compound 54, 6-(methyldithio)hexanoic acid ester of maytansinol], the IC50 (COLO 205 cell line) is reported as 310 pM.
Compound `COc1cc2cc(c1Cl)N(C)C(=O)C[C@H](OC(=O)c1ccc(CSSC)cc1)[C@]1(C)O[C@H]1[C@H](C)[C@@H]1C[C@@](O)(NC(=O)O1)[C@H](OC)/C=C/C=C(\C)C2` [compound 59, 4-((methyldisulfanyl)methyl)benzoic acid ester of maytansinol] has an IC50 (COLO 205 cell line) of 530 pM.
`COc1cc2cc(c1Cl)N(C)C(=O)C[C@H](OC(=O)CCCN(C)C)[C@]1(C)O[C@H]1[C@H](C)[C@@H]1C[C@@](O)(NC(=O)O1)[C@H](OC)/C=C/C=C(\C)C2` [compound 66, Dimethylamino Butyric Acid Ester of Maytansinol] gave an IC50 (COLO 205-MDR cell line) of over 20000 pM, an IC50 (COLO 205 cell line) of 11000 to 12000 pM and an IC50 (KB cell line; 96 hour exposure, read-out: IC50 against the KB cell line) of 11000 to 12000 pM.
In the case of `COc1cc2cc(c1Cl)N(C)C(=O)C[C@H](OC(=O)[C@H](C)N(C)C(C)=O)[C@]1(C)O[C@H]1[C@H](C)[C@@H]1C[C@@](O)(NC(=O)O1)[C@H](OC)/C=C/C=C(\C)C2` [maytansine, N-acetyl-N-methyl-L-alanyl ester of maytansinol], the IC50 (SK-Br-3 cells; Homo sapiens, SK-BR-3, 72 hours incubation) is listed as 34 pM, the “inhibition of in vitro growth of human nasopharyngeal carcinoma cells” value [3] is listed as “active inhibitor” and the “inhibitory activity in vivo” value [4] is listed as “significant inhibitory activity”. The “IC50 towards cancer cells (Kupchan et al.)” value (KB cells [2]) was 0.0000061 micrograms/mL, the “cells accumulating in mitosis” value (L1210 cells) was 67% and the “inhibitory concentration, CEM line” value [5] was ≥ 10^−7 mg/ml.
